Source: patent publication US5712160A, “Method of stimulating growth using neurotrophic peptides” (Board of Regents, The University of Texas System, priority 1995, dated 1998)
Values joined by “and” are separate entries in the source; they are usually repeats but may differ in a detail not shown here. Identical values can stand only once. “Also recorded” adds a separate entry of the source. Blank lines part the entries; values can stand above or below the compound they belong to. Residues, ends and D or L forms follow the SMILES beside them. No end group written: not given here.

Assays:
PC12 cells = assay type: cell-based, rat
Experimental: Cell Culture. Stock cultures of PC12 cells are maintained in a medium consisting of RPMI 1640 supplemented with (v/v) 5% fetal calf serum and 5% horse serum ("complete medium"). At alternate feedings, media containing 1% PSN antibiotic mixture is used, consisting of 5 mg penicillin +5 mg streptomycin +10 mg neomycin/ml. Cells are grown in a humidified atmosphere containing 5% CO2. Cells are split once weekly in a 1:12 ratio by vigorous shaking and trituration. For experiments, PC12 cells are dislodged by shaking, centrifuged at 800×g, diluted in Puck's saline, counted in a hemocytometer, and plated on poly-D-lysine coated polystyrene tissue culture pates. For experiments to be performed in defined, serum-free medium, a modification of the N1 medium of Bottenstein et al. is used consisting of RPMI 1640 supplemented with insulin 5 ug/ml, transferrin 5 ug/ml, 20 nM progesterone, 100 μM putrescine, and 30 nM sodium selenite. Cells are plated in complete medium and allowed to attach overnight before washing twice with serum-free RPMI and addition of N1 medium. For experiments. examining effects of NGF on cell survival following serum deprivation, cells are plated in complete medium and allowed to attach overnight. Cells are then washed once with RPMI containing sheep anti-mouse beta-NGF to remove any residual NGF from serum. After washing once in RPMI, cells receive varying doses of NGF in RPMI. Media is changed on the third day of serum deprivation. On the fourth day, viability is assessed by ^35 S-methionine incorporation into trichloroacetic acid precipitable proteins. The effects of NGF on the response of PC12 cells to peptides is also examined by reduction of the dye 3, (4,5-dimethylthiazol-2-yl)-2,5-diphenyl-tetrazolium (MTT). For experiments using MTT, cells (1×10^4) are plated on poly-D-lysine coated 6 mm wells (96 well plates). Cells are allowed to attach overnight before addition of NGF and/or peptide. After 24 hr, media is removed and replaced with RPMI 1640 medium without serum. Following a 24 hour recovery period, each well is incubated with MTT for 4 hours at 37° C. Formaxan crystals are then solubilized in isopropanol containing 0.04N HCl and plates read on an ELISA reader using test and reference wavelengths of 570 and 630 nm, respectively. All statistics are performed by computer-assisted methods using the Number Cruncher for Statistical Sciences (NCSS) package. […]
The survival of PC12 cells was measured as a function of the amount of peptide P4.
Cells were plated out as mentioned above in RPMI 1640 without serum but in the presence of a fixed amount of NGF with varying amounts of peptide from 0.1 to 100 ug/ml (day one). […] The incorporation of ^35 S-Met into protein was determined by TCA precipitation and protein assay.

[1] = tested on: PC12 cells transplanted into rat cortex; experiment: Transplant of pretreated PC12 cells into lesioned rat brain, NGF receptor immunohistochemistry (Ig192); assay type: in vivo; conditions: cells treated in vitro two weeks; rat cortex stab wound; two weeks after transplant
Experimental: PC12 cells were treated with nerve growth factor (NGF) or peptide P4 in vitro for two weeks. The cells were then transplanted into a rat cortex at the site of the stab wound or 6-hydroxy dopamine-induced lesion. Two weeks after the transplant of the P12 cells, the animal brain was processed for immunohistochemistry by staining with monoclonal antibody to NGF receptor (Ig192). […] The stab-wound lesions carried out by inserting a 24 gauge needle into a stereotoxicly fixed animal so as to lesion motor cortex. Cells were then deposited with the same needle into the wound cavity.
The 6-hydroxydopamine lesions were carried out by injecting […] stereotoxicly into striatum with a needle two weeks prior to transplantation and/or treatment of animals.

[2] = tested on: NGF receptor on PC12 cells
Experimental: Competitive binding assay. The following method of binding assay was carried out: precoat the 24-well plates were precoated with cytochrome C and the PC12 cells plated overnight as mentioned above. The ^125 I labeled NGF was added at 5 ng/ml in the presence of different doses of peptide from 4 ug/ml to 50 ug/ml. […] These peptides are very acidic and NGF is very basic.
In another experiment 24-well plates were precoated with poly-D-Lys at 0.06 mg/ml for 15 minutes and PC12 cells plated overnight at 1×10^5 cells/well in RPMI 1640 with serum conditioned media. The ^125 I-NGF was added at, e.g., 5 ng/ml, in the presence of varying amounts of peptide from 0.01 ug/ml to 50 ug/ml in Hepes buffer with 1 mg/ml BSA. The cells were incubated at rt. for 1 hour then washed with PBS three times and lysed with 0.5N NaOH. The radioactivity was then measured. Protein concentrations of the aliquots were determined by Lowry assay.

labelled NGF = labelled NGF (Homo sapiens, UniProt P01138); experiment: Binding of labelled NGF to peptide fixed on a membrane disc/filter
Experimental: Membrane discs were placed into wells of 96 well plate. Peptide (for example 265 ng/ul) was spotted on each disc. Series dilutions of peptide were used to assure the binding. The disc was dried at 37° C. (or 40° C.) for 1 hour. […] 4% BSA TBS was added to each well. An amount of labelled NGF was added to each well, followed by incubation in 4% BSA TBS. Each disc was washed 4 times with 200 ul TBS (5 minute interval). The discs were transferred to counting vial and counted.
Peptide P4 was attached to a solid matrix at various concentrations and the binding of labeled NGF measured to these various concentrations of bound P4. It is noted that an apparent maximal binding was achieved when about 3 μg of peptide P4 were bound. FIG. 4 illustrates how differing amounts of peptide bound differing amounts of labelled NGF. Here the peptide is fixed to a filter in varying amounts, then exposed to constant amounts of labelled NGF and washed extensively to displace unspecifically bound radioactivity. […] The specific augmentation of NGF effects may thus be understood when small amounts of peptide are added.

NGFR-II = target: T1, NGFR-II (Homo sapiens, UniProt P08138); conditions: low affinity, high capacity binding site; read-out: equilibrium dissociation constant (Kd) of NGF binding; cited from earlier work
T1 sequence (P08138 29-427): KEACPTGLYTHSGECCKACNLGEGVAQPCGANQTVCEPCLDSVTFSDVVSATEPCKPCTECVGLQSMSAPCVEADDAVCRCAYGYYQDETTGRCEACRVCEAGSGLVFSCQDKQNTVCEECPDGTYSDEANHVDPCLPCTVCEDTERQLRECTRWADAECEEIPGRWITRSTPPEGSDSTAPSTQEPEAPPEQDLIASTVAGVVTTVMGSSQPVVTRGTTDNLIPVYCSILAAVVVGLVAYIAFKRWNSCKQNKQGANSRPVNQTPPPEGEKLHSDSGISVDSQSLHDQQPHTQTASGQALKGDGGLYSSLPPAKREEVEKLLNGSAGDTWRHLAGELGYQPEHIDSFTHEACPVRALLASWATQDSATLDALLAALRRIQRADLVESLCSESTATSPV

NGFR-I = conditions: high affinity, low capacity binding site; read-out: equilibrium dissociation constant (Kd) of NGF binding; cited from earlier work

labelled NGF, sequence (P01138 122-241): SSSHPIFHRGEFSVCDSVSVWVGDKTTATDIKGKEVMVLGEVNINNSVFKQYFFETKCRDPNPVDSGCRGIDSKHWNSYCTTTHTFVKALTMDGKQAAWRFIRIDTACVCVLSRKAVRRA

- amount of bound peptide at apparent maximal binding of labeled NGF (FIG. 4) (labelled NGF; peptide fixed to filter, constant amount of labelled NGF): about 3 μg
Compound: CC(C)[C@H](NC(=O)[C@@H](NC(=O)[C@H](CC(N)=O)NC(=O)[C@H](CCC(N)=O)NC(=O)[C@H](CCCCN)NC(=O)[C@H](CC(=O)O)NC(=O)[C@H](CCC(N)=O)NC(=O)[C@@H](N)CS)[C@@H](C)O)C(=O)N[C@@H](CS)C(=O)N[C@@H](CCC(=O)O)C(=O)N[C@@H](CCC(=O)O)C(=O)N[C@@H](CS)C(=O)N1CCC[C@H]1C(=O)N[C@@H](CCC(=O)O)C(=O)O [P4, Cys--Gln--Asp--Lys--Gln--Asn--Thr--Val--Cys--Glu--Glu--Cys--Pro--Glu--OH] (H-CQDKQNTVCEECPE-OH; N-terminus assumed)
- PC12 cell protein synthesis activity (FIG. 6B) (PC12 cells; NGF concentrations of 0.1 to 10 ng/ml): trophic effects
- peptide concentration at maximal PC12 cell survival (FIG. 3) (PC12 cells; in the presence of 2 ng/ml NGF): 5 µg
- increase in protein synthesized (35S-Met incorporation) (PC12 cells; peptide 0.1 ug/ml, serum-free, fixed amount of NGF, day four): 20%
- NGF receptor immunostaining of transplanted PC12 cells (FIG. 8B vs 8A) [1]: significantly greater NGF receptor; also recorded: denser accumulation of NGF receptor sites
- binding of labeled NGF to PC12 cells (FIG. 5) ([2]; lower peptide concentrations measured (1.3 μg)): amplified
- displacement of bound labeled NGF from PC12 cells (FIG. 5) ([2]; peptide at concentrations higher than about 1.5 μg): effective in displacing bound labeled NGF
- increase in binding of 125I-NGF to its receptor ([2]; peptide within 0.01-0.1 ug/ml range, 125I-NGF 5 ng/ml, PC12 cells, 1 hour rt): 50%
- binding of labelled NGF to fixed peptide (labelled NGF; varying amounts of peptide on filter, washed extensively): saturation indicative of specific binding of NGF to peptide

Compound: NGF: Nerve growth factor, a neurotrophic protein; only the β-NGF subunit has nerve growth promoting activity
- Kd (NGFR-II): ~1000 pM and 1000 pM
- Kd (NGFR-I): ~10 pM and 10 pM
- displacement of labeled NGF from PC12 cells (FIG. 1) ([2]; 10 micrograms unlabeled NGF or peptide, various concentrations of free labeled NGF): more effective in displacing labeled NGF than most of the synthetic peptides

Compound: Tyr--Cys--Gln--Asp--Lys--Gln--Asn--Thr--Val--Cys--Glu--Glu--Cys--Pro--Glu--OH (YCQDKQNTVCEECPE-OH; cysteine pairing not given here) [P5]
- PC12 cell survival during serum deprivation (FIG. 6) (PC12 cells; in the presence of 0.5 ng/ml NGF): enhancement of cell survival
